Measurements: ChEMBL document CHEMBL1158156, “Structure-based design, synthesis, and biological evaluation of 1,1-dioxoisothiazole and benzo[b]thiophene-1,1-dioxide derivatives as novel inhibitors of hepatitis C virus NS5B polymerase” (Bioorg Med Chem Lett, 2008)

Experiments:
[1] = Metabolic stability in human liver microsomes assessed as half life
[2] = system: Hepatitis C virus; assay: Antiviral activity against HCV 1b infected in human Huh7/C24 cells after 72 hrs by replicon assay; type: functional, organism-based, Hepacivirus hominis; details: genotype 1b, Huh-7, 72 h
[3] = system: Hepatitis C virus; assay: Inhibition of HCV 1b NS5B polymerase; parameters: species or system Hepatitis C virus subtype 1b
[4] = Cytotoxicity against human Huh7/C24 cells after 72 hrs; type: cell-based, Huh-7
[5] = Apparent permeability across human Caco-2 cells
[6] = Oral bioavailability in cynomolgus monkey at 1 mg/kg administered as single dose; type: ADME, organism-based, Macaca fascicularis; details: in vivo
[7] = Apparent permeability from apical to basolateral side in human Caco-2 cells; type: ADME, cell-based
[8] = AUC at 24 hrs in cynomolgus monkey at 1 mg/kg, po administered as single dose; type: ADME, organism-based, Macaca fascicularis; parameters: time < 24 hr, dose 1 mg/kg, route oral; details: plasma
[9] = Ratio of permeability from basolateral to apical over apical to basolateral side in human Caco-2 cells
[10] = Apparent permeability from basolateral to apical side in human Caco-2 cells; type: ADME, cell-based
[11] = Plasma concentration in cynomolgus monkey at 1 mg/kg, po administered as single dose after 12 hrs; type: ADME, organism-based, Macaca fascicularis; parameters: dose 1 mg/kg, route oral

Compound	half-life ([1]; liver microsomes) [h]	EC50 [2] [µM]	IC50 [3] [µM]	CC50 at 72 h [4] [µM]	also measured
CC(C)(C)[C@H]1C(O)=C(C2=NS(=O)(=O)c3c(OCC#N)cccc32)C(=O)N1Cc1ccc(F)c(Cl)c1	> 1	0.7	0.07	> 33	
CC(C)[C@H]1C(O)=C(C2=NS(=O)(=O)c3c(O)cccc32)C(=O)N1Cc1ccccc1	> 1	47	0.47	> 33	
CC(C)[C@H]1C(O)=C(C2=NS(=O)(=O)c3c(OCC#N)cccc32)C(=O)N1Cc1ccccc1	> 1	12	1.6	> 33	
CC(C)NCC(O)COc1cccc2ccccc12 (configuration not stated) [PROPRANOLOL]					Papp [5]: 10 ×10⁻⁶ cm/s
CC(C)(C)[C@H]1C(O)=C(C2=NS(=O)(=O)c3c(CNS(C)(=O)=O)cccc32)C(=O)N1Cc1ccc(F)c(Cl)c1	> 1	0.07	< 0.01	> 33	bioavailability [6]: 1%; Papp A→B [7]: 0.1 ×10⁻⁶ cm/s; AUC at 24 h [8]: 38 ng·h/mL; efflux ratio [9]: 150; Papp B→A [10]: 15 ×10⁻⁶ cm/s; concentration at 12 h [11]: 0.5 ng/mL
CC(C)(C)CCN1C(=O)C(C2=NS(=O)(=O)c3c(CCS(C)(=O)=O)cccc32)=C(O)[C@@H]1C(C)(C)C	> 1	2.6	0.045	> 33	
CC(C)(C)[C@H]1C(O)=C(C2=NS(=O)(=O)c3cc(NS(C)(=O)=O)ccc32)C(=O)N1Cc1ccc(F)c(Cl)c1	> 1	13	0.094	> 33	
CN(Cc1cccc2c1S(=O)(=O)C=C2C1=C(O)[C@H](C(C)(C)C)N(CCC(C)(C)C)C1=O)S(C)(=O)=O	> 1	5.8	0.92	> 33	
CC(C)(C)CCN1C(=O)C(C2=NS(=O)(=O)c3c(OCc4ncon4)cccc32)=C(O)[C@@H]1C(C)(C)C	0.733	2	0.65	> 33	
CCOc1cccc2c1S(=O)(=O)N=C2C1=C(O)[C@H](C2CCCCC2)N(CCC(C)(C)C)C1=O			4	> 33	
CC(C)[C@@]1(C)C(O)=C(C2=CS(=O)(=O)c3c(CN(C)S(C)(=O)=O)cccc32)C(=O)N1CCC(C)(C)C	> 1		13	> 33	
CCOc1cccc2c1S(=O)(=O)N=C2C1=C(O)[C@H](C(C)(C)C)N(CCC(C)(C)C)C1=O	> 1		1.5	> 33	
CC(C)(C)[C@H]1C(O)=C(C2=NS(=O)(=O)c3c(OCc4ncon4)cccc32)C(=O)N1Cc1ccc(F)c(Cl)c1	> 1	1.8	0.18	> 33	
CC[C@@]1(C)C(O)=C(C2=NS(=O)(=O)c3c(CN(C)S(C)(=O)=O)cccc32)C(=O)N1Cc1ccc(F)c(Cl)c1			0.41	> 33	half-life ([1]; microsomes): > 1 h
CCOc1cccc2c1S(=O)(=O)N=C2C1=C(O)[C@H](C(C)(C)C)N(CCC(C)C)C1=O			5.1	> 33	
CC(C)[C@H]1C(O)=C(C2=NS(=O)(=O)c3ccccc32)C(=O)N1Cc1ccccc1	> 1	24		> 33	
CC(C)[C@H]1C(O)=C(C2=NS(=O)(=O)c3c(OCCC(N)=O)cccc32)C(=O)N1Cc1ccccc1		100	1.2	> 33	
CC(C)[C@H]1C(O)=C(C2=NS(=O)(=O)c3c(OCC(=O)N4CCOCC4)cccc32)C(=O)N1Cc1ccccc1	> 1	> 33	3.2	> 33	

Compound	half-life ([1]; liver microsomes) [h]	EC50 [2] [µM]	IC50 [3] [µM]	CC50 at 72 h [4] [µM]	also measured
CCOc1cccc2c1S(=O)(=O)N=C2C1=C(O)C(c2cccs2)N(CCC(C)(C)C)C1=O (racemic)			2.9	> 33	
CC(C)(C)CCN1C(=O)C(C2=CS(=O)(=O)c3c(CNS(C)(=O)=O)cccc32)=C(O)[C@@H]1C(C)(C)C	> 1	6.4	0.24	> 33	
CC(C)[C@H]1C(O)=C(C2=NS(=O)(=O)c3c(OCc4ncon4)cccc32)C(=O)N1Cc1ccccc1	> 1	15	0.35	> 33	
CN(Cc1cccc2c1S(=O)(=O)N=C2C1=C(O)[C@H](C(C)(C)C)N(Cc2ccc(F)c(Cl)c2)C1=O)S(C)(=O)=O	> 1	0.09	0.023	> 33	bioavailability [6]: 4%; Papp A→B [7]: 0.2 ×10⁻⁶ cm/s; AUC at 24 h [8]: 193 ng·h/mL; efflux ratio [9]: 132; Papp B→A [10]: 29 ×10⁻⁶ cm/s; concentration at 12 h [11]: 3.1 ng/mL
CC(C)(C)CCN1C(=O)C(C2=NS(=O)(=O)c3ccccc32)=C(O)[C@@H]1C(C)(C)C	0.167	4.3	0.42	> 33	Papp A→B [7]: 9.9 ×10⁻⁶ cm/s; AUC at 24 h [8]: 4680 ng·h/mL; efflux ratio [9]: 2; Papp B→A [10]: 19 ×10⁻⁶ cm/s; concentration at 12 h [11]: 5 ng/mL
CCOc1cccc2c1S(=O)(=O)N=C2C1=C(O)[C@H](C(C)C)N(CCC(C)(C)C)C1=O			9	> 33	
CCOc1cccc2c1S(=O)(=O)N=C2C1=C(O)[C@H](CC(C)C)N(CCC(C)(C)C)C1=O			5.1	> 33	
CC(C)(C)[C@H]1C(O)=C(C2=NS(=O)(=O)c3c(OCC(N)=O)cccc32)C(=O)N1Cc1ccc(F)c(Cl)c1	> 1	7.9	0.033	> 33	
CCOc1cccc2c1S(=O)(=O)N=C2C1=C(O)[C@H](C(C)(C)C)N(Cc2cccc(Cl)c2)C1=O			1.6	> 33	
CCOc1cccc2c1S(=O)(=O)N=C2C1=C(O)[C@H](C(C)C)N(Cc2ccccc2)C1=O	> 1	18	3.6	> 33	
CC(C)(C)CCN1C(=O)C(C2=NS(=O)(=O)c3c(CNS(C)(=O)=O)cccc32)=C(O)[C@@H]1C(C)(C)C		0.35	0.018	> 33	half-life ([1]; microsomes): > 1 h
CCOc1cccc2c1S(=O)(=O)N=C2C1=C(O)[C@H](C(C)(C)C)N(Cc2ccc(F)c(Cl)c2)C1=O			0.76	> 33	half-life ([1]; microsomes): > 1 h
CN(Cc1cccc2c1S(=O)(=O)N=C2C1=C(O)C2(CC2)N(Cc2ccc(F)c(Cl)c2)C1=O)S(C)(=O)=O	> 1		0.62	> 33	
CS(=O)(=O)NCc1cccc2c1S(=O)(=O)N=C2C1=C(O)C2(CC2)N(Cc2ccc(F)c(Cl)c2)C1=O		> 33	0.13	> 33	half-life ([1]; microsomes): > 1 h
CC(C)[C@H]1C(O)=C(C2=NS(=O)(=O)c3c(OCC(=O)C(C)(C)C)cccc32)C(=O)N1Cc1ccccc1		> 33	21	> 33	
CC(C)[C@H]1C(O)=C(C2=NS(=O)(=O)c3c(OCC(N)=O)cccc32)C(=O)N1Cc1ccccc1	> 1	88	0.52	> 33	
CN(Cc1cccc2c1S(=O)(=O)N=C2C1=C(O)C(C)(C)N(Cc2ccc(F)c(Cl)c2)C1=O)S(C)(=O)=O	> 1		0.46	> 33	
CC(C)(C)CCN1C(=O)C(C2=NS(=O)(=O)c3c(OCC(N)=O)cccc32)=C(O)[C@@H]1C(C)(C)C	0.8	11	0.2	> 33	
